Results taken from patent US20260250290A1 (BRISTOL-MYERS SQUIBB COMPANY, priority 2023, published 2026).

These molecules were tested against T1, full length SGK1 (Homo sapiens, UniProt O00141) (assay: SGK1 inhibition Assay A (Caliper LabChip electrophoretic separation of fluorescent peptide substrate and phosphorylated product)). Details: Assay A; 20 μM ATP, 40 min incubation; read-out: SGK1 IC50.
T1 construct: 125 μM full length SGK1 (Life Technologies Part #PR7358A); purchased Life Technologies PR7358A
T1 sequence (O00141 1-431): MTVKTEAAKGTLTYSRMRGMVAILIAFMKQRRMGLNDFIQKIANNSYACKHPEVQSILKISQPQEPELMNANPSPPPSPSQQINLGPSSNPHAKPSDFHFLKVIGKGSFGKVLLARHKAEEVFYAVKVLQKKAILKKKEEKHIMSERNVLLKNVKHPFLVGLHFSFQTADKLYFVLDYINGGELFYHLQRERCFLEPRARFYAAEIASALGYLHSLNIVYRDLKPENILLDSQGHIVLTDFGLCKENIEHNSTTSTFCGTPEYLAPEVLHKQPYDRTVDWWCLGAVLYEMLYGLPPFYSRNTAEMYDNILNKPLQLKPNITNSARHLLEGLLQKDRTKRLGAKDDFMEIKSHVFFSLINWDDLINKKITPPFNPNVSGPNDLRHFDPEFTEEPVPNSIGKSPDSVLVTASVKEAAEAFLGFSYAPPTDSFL
Format: biochemical

In order of falling IC50:
1. COC(=O)C12CC(C(=O)N[C@@H]3CCCN(c4cc(C5=CCN(C(C)=O)C5)n5ncnc(N)c45)C3)(C1)C2 [Example 478, Methyl(R)-3-((1-(7-(1-acetyl-2,5-dihydro-1H-pyrrol-3-yl)-4-aminopyrrolo[2,1-f][1,2,4]triazin-5-yl)piperidin-3-yl)carbamoyl)bicyclo[1.1.1]pentane-1-carboxylate]  771 nM
2. COc1cc(C#N)ccc1C(=O)N[C@@H]1CCCN(c2cc(C3=CCN(C(C)=O)C3)n3ncnc(N)c23)C1 [Example 496, (R)-N-(1-(7-(1-acetyl-2,5-dihydro-1H-pyrrol-3-yl)-4-aminopyrrolo[2,1-f][1,2,4]triazin-5-yl)piperidin-3-yl)-4-cyano-2-methoxybenzamide]  344 nM
3. CC(=O)N1CC=C(c2cc(N3CCC[C@@H](NC(=O)c4nn(-c5ccccc5)nc4C)C3)c3c(N)ncnn23)C1 [Example 471, (R)-N-(1-(7-(1-acetyl-2,5-dihydro-1H-pyrrol-3-yl)-4-aminopyrrolo[2,1-f][1,2,4]triazin-5-yl)piperidin-3-yl)-5-methyl-2-phenyl-2H-1,2,3-tricazole-4-arboxamide]  146 nM
4. CC(=O)N1CC=C(c2cc(N3CCC[C@@H](NC(=O)c4snnc4C)C3)c3c(N)ncnn23)C1 [Example 473, (R)-N-(1-(7-(1-acetyl-2,5-dihydro-1H-pyrrol-3-yl)-4-aminopyrrolo[2,1-f][1,2,4]triazin-5-yl)piperidin-3-yl)-4-methyl-1,2,3-thiadiazole-5-carboxamide]  107 nM
5. CC(=O)N1CC=C(c2cc(N3CCC[C@@H](NC(=O)c4cccc(C#N)c4)C3)c3c(N)ncnn23)C1 [Example 495, (R)-N-(1-(7-(1-acetyl-2,5-dihydro-1H-pyrrol-3-yl)-4-aminopyrrolo[2,1-f][1,2,4]triazin-5-yl)piperidin-3-yl)-3-cyanobenzamide]  87 nM
6. CC(=O)N1CC=C(c2cc(N3CCC[C@@H](NC(=O)c4ccccc4N(C)C)C3)c3c(N)ncnn23)C1 [Example 470, (R)-N-(1-(7-(1-acetyl-2,5-dihydro-1H-pyrrol-3-yl)-4-aminopyrrolo[2,1-f][1,2,4]triazin-5-yl)piperidin-3-yl)-2-(dimethylamino)benzamide]  75 nM
7. CC(=O)N1CC=C(c2cc(N3CCC[C@@H](NC(=O)c4ccc5c(c4)OCO5)C3)c3c(N)ncnn23)C1 [Example 467, (R)-N-(1-(7-(1-acetyl-2,5-dihydro-1H-pyrrol-3-yl)-4-aminopyrrolo[2,1-f][1,2,4]triazin-5-yl)piperidin-3-yl)benzo[d][1,3]dioxole-5-carboxamide]  64 nM
8. CC(=O)N1CC=C(c2cc(N3CCC[C@@H](NC(=O)c4sc(C)nc4C)C3)c3c(N)ncnn23)C1 [Example 472, (R)-N-(1-(7-(1-acetyl-2,5-dihydro-1H-pyrrol-3-yl)-4-aminopyrrolo[2,1-f][1,2,4]triazin-5-yl)piperidin-3-yl)-2,4-dimethylthiazole-5-carboxamide]  62 nM
9. Nc1ncnn2c(-c3ccnc(C(F)F)c3)cc(N3CCC[C@@H](NC(=O)c4nc5ccccc5[nH]4)C3)c12 [Example 489, (R)-N-(1-(4-amino-7-(2-(difluoromethyl)pyridin-4-yl)pyrrolo[2,1-f][1,2,4]triazin-5-yl)piperidin-3-yl)-1H-benzo[d]imidazole-2-carboxamide]  53 nM
10. CC(=O)N1CC=C(c2cc(N3CCC[C@@H](NC(=O)c4cc(-c5ccccc5)ncn4)C3)c3c(N)ncnn23)C1 [Example 492, (R)-N-(1-(7-(1-acetyl-2,5-dihydro-1H-pyrrol-3-yl)-4-aminopyrrolo[2,1-f][1,2,4]triazin-5-yl)piperidin-3-yl)-6-phenylpyrimidine-4-carboxamide]  53 nM
11. COc1nc(C)c(C(=O)N[C@@H]2CCCN(c3cc(C4=CCN(C(C)=O)C4)n4ncnc(N)c34)C2)s1 [Example 474, (R)-N-(1-(7-(1-acetyl-2,5-dihydro-1H-pyrrol-3-yl)-4-aminopyrrolo[2,1-f][1,2,4]triazin-5-yl)piperidin-3-yl)-2-methoxy-4-methylthiazole-5-carboxamide]  45 nM
12. COC(=O)N1CC=C(c2cc(N3CCC[C@@H](NC(=O)c4cc5cc(C#N)ccc5[nH]4)C3)c3c(N)ncnn23)C1 [Example 498, Methyl (R)-3-(4-amino-5-(3-(5-cyano-1H-indole-2-carboxamido)piperidin-1-yl)pyrrolo[2,1-f][1,2,4]triazin-7-yl)-2,5-dihydro-1H-pyrrole-1-carboxylate]  41 nM
13. CC(=O)N1CC=C(c2cc(N3CCC[C@@H](NC(=O)c4ccc(C#N)cc4)C3)c3c(N)ncnn23)C1 [Example 494, (R)-N-(1-(7-(1-acetyl-2,5-dihydro-1H-pyrrol-3-yl)-4-aminopyrrolo[2,1-f][1,2,4]triazin-5-yl)piperidin-3-yl)-4-cyanobenzamide]  38 nM
14. CC(C)c1cc(C(=O)N[C@@H]2CCCN(c3cc(-c4ccnc(C(F)F)c4)n4ncnc(N)c34)C2)[nH]n1 [Example 486, (R)-N-(1-(4-amino-7-(2-(difluoromethyl)pyridin-4-yl)pyrrolo[2,1-f][1,2,4]triazin-5-yl)piperidin-3-yl)-3-isopropyl-1H-pyrazole-5-carboxamide]  27 nM
15. CC(=O)N1CC=C(c2cc(N3CCC[C@@H](NC(=O)c4ccc(S(C)(=O)=O)cc4)C3)c3c(N)ncnn23)C1 [Example 468, (R)-N-(1-(7-(1-acetyl-2,5-dihydro-1H-pyrrol-3-yl)-4-aminopyrrolo[2,1-f][1,2,4]triazin-5-yl)piperidin-3-yl)-4-(methylsulfonyl)benzamide]  26 nM
16. Cc1nc(C)c(C(=O)N[C@@H]2CCCN(c3cc(-c4ccnc(C(F)F)c4)n4ncnc(N)c34)C2)s1 [Example 485, (R)-N-(1-(4-amino-7-(2-(difluoromethyl)pyridin-4-yl)pyrrolo[2,1-f][1,2,4]triazin-5-yl)piperidin-3-yl)-2,4-dimethylthiazole-5-carboxamide]  26 nM
17. CC(=O)N1CC=C(c2cc(N3CCC[C@@H](NC(=O)c4cc5cnccc5[nH]4)C3)c3c(N)ncnn23)C1 [Example 490, (R)-N-(1-(7-(1-acetyl-2,5-dihydro-1H-pyrrol-3-yl)-4-aminopyrrolo[2,1-f][1,2,4]triazin-5-yl)piperidin-3-yl)-1H-pyrrolo[3,2-c]pyridine-2-carboxamide]  24 nM
18. Nc1ncnn2c(-c3ccnc(C(F)F)c3)cc(N3CCC[C@@H](NC(=O)c4sc(Cl)cc4O)C3)c12 [Example 481, (R)-N-(1-(4-amino-7-(2-(difluoromethyl)pyridin-4-yl)pyrrolo[2,1-f][1,2,4]triazin-5-yl)piperidin-3-yl)-5-chloro-3-hydroxythiophene-2-carboxamide]  16 nM
19. COc1ccc2[nH]c(C(=O)N[C@@H]3CCCN(c4cc(C5=CCN(C(C)=O)C5)n5ncnc(N)c45)C3)cc2c1 [Example 491, (R)-N-(1-(7-(1-acetyl-2,5-dihydro-1H-pyrrol-3-yl)-4-aminopyrrolo[2,1-f][1,2,4]triazin-5-yl)piperidin-3-yl)-5-methoxy-1H-indole-2-carboxamide]  6 nM
20. CC(=O)N1CC=C(c2cc(N3CCC[C@@H](NC(=O)c4cc(-c5ccccc5)n[nH]4)C3)c3c(N)ncnn23)C1 [Example 493, (R)-N-(1-(7-(1-acetyl-2,5-dihydro-1H-pyrrol-3-yl)-4-aminopyrrolo[2,1-f][1,2,4]triazin-5-yl)piperidin-3-yl)-3-phenyl-1H-pyrazole-5-carboxamide]  6 nM
21. Nc1ncnn2c(-c3ccnc(C(F)F)c3)cc(N3CCC[C@@H](NC(=O)c4ccc(Cl)s4)C3)c12 [Example 483, (R)-N-(1-(4-amino-7-(2-(difluoromethyl)pyridin-4-yl)pyrrolo[2,1-f][1,2,4]triazin-5-yl)piperidin-3-yl)-5-chlorothiophene-2-carboxamide]  4 nM
22. Nc1ncnn2c(-c3ccnc(C(F)F)c3)cc(N3CCC[C@@H](NC(=O)c4cccs4)C3)c12 [Example 484, (R)-N-(1-(4-amino-7-(2-(difluoromethyl)pyridin-4-yl)pyrrolo[2,1-f][1,2,4]triazin-5-yl)piperidin-3-yl)thiophene-2-carboxamide]  4 nM
23. COC(=O)N1CC=C(c2cc(N3CCC[C@@H](NC(=O)c4ccc(C(F)F)s4)C3)c3c(N)ncnn23)C1 [Example 480, Methyl (R)-3-(4-amino-5-(3-(5-(difluoromethyl)thiophene-2-carboxamido)piperidin-1-yl)pyrrolo[2,1-f][1,2,4]triazin-7-yl)-2,5-dihydro-1H-pyrrole-1-carboxylate]  3 nM
24. N#Cc1ccc(-c2cc(N3CCC[C@@H](NC(=O)c4ccc(C(F)F)s4)C3)c3c(N)ncnn23)cn1 [Example 487, (R)-N-(1-(4-amino-7-(6-cyanopyridin-3-yl)pyrrolo[2,1-f][1,2,4]triazin-5-yl)piperidin-3-yl)-5-(difluoromethyl)thiophenc-2-carboxamide]  3 nM
25. Nc1ncnn2c(-c3ccnc(C(F)F)c3)cc(N3CCC[C@@H](NC(=O)c4cc5ccccc5[nH]4)C3)c12 [Example 488, (R)-N-(1-(4-amino-7-(2-(difluoromethyl)pyridin-4-yl)pyrrolo[2,1-f][1,2,4]triazin-5-yl)piperidin-3-yl)-1H-indole-2-carboxamide]  1 nM
26. NC(=O)c1ccc(-c2cc(N3CCC[C@@H](NC(=O)c4ccc(C(F)F)s4)C3)c3c(N)ncnn23)cc1F [Example 497, (R)-N-(1-(4-amino-7-(4-carbamoyl-3-fluorophenyl)pyrrolo[2,1-f][1,2,4]triazin-5-yl)piperidin-3-yl)-5-(difluoromethyl)thiophene-2-carboxamide]  1 nM
